Assay results: patent US20260078454A1, “MULTIPLE ANTIBIOTIC BACTERIAL RESPONSE” (priority 2022, published 2026)

How the values were obtained:
[1] = system: Acinetobacter baumannii; format: cell-based; conditions: for differentially expressed transcripts in common between amikacin and gentamicin: 3.5 hours of exposure; for number of differentially expressed transcripts: pan-susceptible strain, MIC breakpoint, vs no-antibiotic control
Protocol: A pan-susceptible Acinetobacter baumannii was cultured and exposed to each of the nine conditions (including a no-antibiotic control) above as a single-exposure condition, meaning only one antibiotic per sample, no combination of drugs. Antibiotics were dosed at the resistance break point concentration (MIC breakpoint) for each compound according to the 2023 CLSI M100 guidelines. Antibiotic-treated and control cultures were maintained for 0.5 hours, 1.5 hours, 2.5 hours, and 3.5 hours and subsequently harvested to conduct RNA-seq, as discussed above in Example 3. Multiple replicates of this experimental set-up were performed to assess variance of the transcriptional response.
Cultures at the appropriate OD595 were transferred to a 37° C. incubator until the OD595 was between 0.9-1.4. The culture was distributed into individual treatment tubes containing antibiotics (or not for the control condition) and incubated at 37° C. for the specified exposure times (0.5, 1.5, 2.5, 3.5 hrs). At each timepoint, an aliquot of each of the treated and control culture conditions was removed and nucleic acid was extracted on the bioMérieux EMAG platform. […] The nucleic acid extracts were then treated with DNAse to remove all genomic DNA and extracted a second time, resulting in a pure RNA sample for each condition. These RNA samples were sent to the High-Throughput Genomics Core at the Huntsman Cancer Institute at the University of Utah for RNA-sequencing on the Illumina NovaSeq 6000 platform. A total of five biological replicates were made, which would result in 180 RNA-seq samples (36*5), although due to some instrument difficulties an actual total of 161 samples were sent to the sequencing core lab.
Differential expression analysis of RNA-seq read data is as follows. Read data was adapter and quality trimmed using bbduk (bbmap_38.86). Adapter and quality trimmed reads (fastq) were mapped to an Acinetobacter baumannii genome using Kallisto (Kallisto v0.48.0) to generate read counts for each annotated transcript in the genome. Read count data (all conditions) were normalized using Sleuth (0.30.1) and differential expression tests conducted between each independent antibiotic exposure condition and the no-antibiotic time matched control using the lrt test within Sleuth using a qvalue significance cutoff of 0.05 to determine differential expression. Lists of differentially expressed transcripts for each antibiotic and each timepoint were generated and aggregated according to the MOA classes (see prior) to determine if there was significant overlap in the transcriptional response to each MOA class of antibiotics.

[2] = system: Pseudomonas aeruginosa; test: RNA-seq differential expression after single and combined antibiotic exposure; format: cell-based; conditions: pan susceptible strain; CLSI resistance break point concentration; 60 minutes; regardless of whether the other two antibiotics were present
Protocol: RNA-sequencing (“RNA-seq”) was conducted using two strains of Pseudomonas aeruginosa: one a resistant strain and the second a pan susceptible strain. The strains were cultured to an optical density of 1.0, or approximately 1.5×10^9 genomic copies/mL (measured using digital PCR). The culture was then aliquoted into four independent culture tubes, three of which contained one single antibiotic and the fourth was a no-antibiotic control. Once mixed with antibiotics, where each antibiotic was dosed at its CLSI resistance break point concentration based upon 2021 guidance, the culture aliquots were returned to an incubator set to 37° C. using ambient air and agitated using orbital mixing for 60 minutes. […] Recovered reads were processed through an internal RNA-seq bioinformatics pipeline that includes the following steps: read quality and adapter trimming, surviving reads were assigned a genomic position in the reference P. aeruginosa genome PA01 using Kallisto (and read counts with dispersion estimates calculated), and differential expression analysis comparing each antibiotic treatment with the no-antibiotic control data set were conducted using Sleuth for each strain. […]

Row | Compound | differentially expressed transcripts in common between amikacin and gentamicin [1] [%] | number of differentially expressed transcripts ([1]; 0.5 hrs of exposure) | regulation of antibiotic specific response transcripts [2] | overlap of gentamicin response with amikacin response ([1]; 0.5 hrs of exposure)
1 | NCC[C@H](O)C(=O)N[C@@H]1C[C@H](N)[C@@H](O[C@H]2O[C@H](CN)[C@@H](O)[C@H](O)[C@H]2O)[C@H](O)[C@H]1O[C@H]1O[C@H](CO)[C@@H](O)[C@H](N)[C@H]1O [amikacin] | 93.2 | 1825 | – | –
2 | C[C@H]1COc2c(N3CCN(C)CC3)c(F)cc3c(=O)c(C(=O)O)cn1c23 [levofloxacin] | – | 1394 | – | –
3 | gentamicin | 93.2 | 6 | up regulation of eight transcripts | fully contained within the amikacin response
4 | C[C@@H](O)[C@H]1C(=O)N2C(C(=O)O)=C(S[C@@H]3CN[C@H](C(=O)N(C)C)C3)[C@H](C)[C@H]12 [meropenem] | – | – | up regulation of five transcripts | –
